Tests used:
[1] = test system: HCT116 cells; experiment: MTT viability assay, HCT116; assay type: cell-based, human; conditions: 72 h, mean±SD; read-out: IC50 [μM] (n = 3) HCT116 MTT
Protocol: In a preliminary test, the stability of all compounds dissolved in the cell medium (c = 100 μM, T = [drawing 47] ) for 72 h was validated by HPLC (see Supporting Information). Cell lines were incubated with the respective compounds in a concentration range of 1.56–100 μM for 72 h, and cell viability was measured using 3-(4,5-dimethylthiazol-2-yl)-2,5-diphenyltetrazolium bromide (MTT) and crystal violet (CV) assays. […] As MTT tests gave inconsistent results, possibly due to interference of the compound with mitochondrial respiration, for the further evaluation only the CV results are considered[97],[98].
(§1) The biological study was performed on a murine colon adenocarcinoma cell line (MC38), two human colorectal carcinoma cell lines (HCT116 and HT29), and a human fetal lung fibroblast cell line (MRC-5). All cell lines are commercially available and were obtained from the American Type Culture Collection (ATCC). The human cell lines were kept in HEPES-buffered RPMI-1640 medium supplemented with 10 [drawing 141] heat-inactivated FCS, 2 mM L-glutamine, 0.01 [drawing 142] sodium pyruvate, penicillin (100 units mL^−1), and, streptomycin ( [drawing 143] mL^-1). The MC38 cell line was maintained in DMEM medium additionally supplemented with 1 [drawing 144] non-essential amino acids. Cells were grown at [drawing 145] in a humidified atmosphere with 5 [drawing 146] [drawing 147] . Peritoneal exudate cells (PECs) were isolated from healthy C57BL/6 mice (males, n = 3, 3 months old, weight 22–25 g) by performing an ice-cold PBS peritoneal lavage. Mice were sacrificed by cervical dislocation. Cells were cultivated for 4 h when nonadherent population was removed by washing in PBS, and additionally cultivated overnight in HEPES-buffered RPMI-1640 medium supplemented with 5 [drawing 148] heat-inactivated FCS before treatment with experimental drugs. Animal handling and protocol for isolation of PECs were performed according to European Union rules, and the ARRIVE guidelines 2.0.
For the viability tests, MC38, HCT116, and HT29 cells were seeded in 96-well plates at a density of 2 [drawing 149] 103, 5 [drawing 150] 103, and 6 [drawing 151] 10^3 cells/well, respectively. To determine whether the drug affected the viability of healthy, non-malignant cells, MRC-5 and PECs were seeded in 96-well plates at a density of 8 [drawing 152] 103 and 2 [drawing 153] 10^5 cells/well, respectively. For the flow cytometric analyses, MC38 cells were seeded in 6-well plates at 5 [drawing 154] 10^4 cells/well. For morphological assessment of nuclei and the detection of autophagy, MC38 cells were seeded in 2-well chamber slides at 1.5 [drawing 155] 10^4 cells/well.
After 72 h, cell viability was determined using MTT and CV tests. First, the supernatant from the wells was discarded and the cells were incubated with an MTT solution (0.5 mg mL^−1). After half an hour, the purple formazan crystals formed were dissolved in DMSO. For CV staining of the cells, the cells were fixed with 4 [drawing 157] PFA for 10 min and then stained with a 0.02 [drawing 158] CV solution for 15 min, all at room temperature (RT). The cells were then washed with tap water, air-dried and the dye was dissolved in 33 [drawing 159] acetic acid. For both viability tests, the absorbance of the developed colors was measured using an automated microplate reader at 570 nm with a reference wavelength of 670 nm. The results were expressed as a percentage of the control values of the untreated cells, which were arbitrarily set at 100 [drawing 160] . IC50 values, defined as 50 [drawing 161] inhibitory concentration, were calculated using a four-parameter logistic function and presented as mean±SD. All biological experiments were performed in triplicates. To evaluate the nature of the detected autophagy, a combined treatment with compound 3 and the autophagy inhibitors chloroquine (Chlq) and 3-methyladenine (3-MA) was carried out. […] After 72 h, cell viability was determined by CV assay.

[2] = target: T1, ovine COX-1 (Ovis aries, UniProt P05979); experiment: COX Fluorescent Inhibitor Screening Assay, COX-1; assay type: biochemical; conditions: absolute IC50, 0.1 to 100 μM in duplicate, 95% CI in brackets
T1 construct: purchased Cayman Chemical Company, Ann Arbor, MI, USA
T1 sequence (P05979 25-600): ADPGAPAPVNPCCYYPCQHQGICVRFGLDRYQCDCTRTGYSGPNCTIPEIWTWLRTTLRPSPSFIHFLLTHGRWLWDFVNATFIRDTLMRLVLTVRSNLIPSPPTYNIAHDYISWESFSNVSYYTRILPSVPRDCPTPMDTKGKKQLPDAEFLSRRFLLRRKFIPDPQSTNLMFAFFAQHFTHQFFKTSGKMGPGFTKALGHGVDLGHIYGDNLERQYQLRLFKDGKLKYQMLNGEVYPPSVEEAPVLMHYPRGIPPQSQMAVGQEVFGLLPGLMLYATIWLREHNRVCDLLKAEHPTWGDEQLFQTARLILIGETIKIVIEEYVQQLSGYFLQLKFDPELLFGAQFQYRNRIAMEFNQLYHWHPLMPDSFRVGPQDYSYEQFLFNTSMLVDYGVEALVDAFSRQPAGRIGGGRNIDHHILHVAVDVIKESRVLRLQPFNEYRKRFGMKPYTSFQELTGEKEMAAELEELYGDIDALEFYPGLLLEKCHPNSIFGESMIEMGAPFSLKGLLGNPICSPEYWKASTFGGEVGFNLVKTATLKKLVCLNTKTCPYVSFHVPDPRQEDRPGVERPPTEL
Protocol: The COX inhibition activity against ovine COX-1 and human recombinant COX-2 was determined using the COX Fluorescent Inhibitor Screening Assay Kit (Cayman Chemical Company, Ann Arbor, MI, USA) according to the manufacturer’s instructions as reported.

[3] = test system: MC38 cells; experiment: CFSE cell proliferation, flow cytometry; assay type: cell-based, murine; conditions: IC50 concentration, 72 h
Protocol: For all flow cytometric analyses, MC38 cells were seeded overnight and then treated with the IC50 concentration of compound 3 for 72 h. The cells were harvested, washed, and stained according to the manufacturer’s instructions for each method. To determine whether the compound induces apoptosis, cells were double stained with AnnV-FITC and PI (15 μg mL^–1) for 15 min at RT in the dark. To detect caspase activity, cells were stained with the FITC-conjugated caspase inhibitor ApoStat for 30 min at [drawing 162] . To detect cell proliferation, MC38 cells were stained with CFSE (1 μM) for 10 min at [drawing 163] prior to seeding and then treated as previously described. To detect intracellular production of Reactive oxygen/nitrogen Species (ROS/RNS), MC38 cells were prestained with DHR 123 (1 [drawing 164] M) for 20 min at [drawing 165] , then seeded and exposed to an IC50 concentration of compound 3. After 72 h incubation, all samples were washed, resuspended in PBS and fluorescence intensity was analyzed using a CytoFLEX [drawing 166] flow cytometer (Beckman Coulter, Pasadena, CA, USA), while the data obtained was evaluated using the [drawing 167] software program.

[4] = test system: human fetal lung fibroblast cell line MRC-5; experiment: Viability of non-malignant MRC-5 cells; assay type: cell-based; conditions: column head not given
Protocol: as §1, with “Animal handling and protocol for isolation of PECs were performed according to European Union rules, and the ARRIVE guidelines 2.0.” left out
After 72 h, cell viability was determined using MTT and CV tests. […] For both viability tests, the absorbance of the developed colors was measured using an automated microplate reader at 570 nm with a reference wavelength of 670 nm. The results were expressed as a percentage of the control values of the untreated cells, which were arbitrarily set at 100 [drawing 160] . IC50 values, defined as 50 [drawing 161] inhibitory concentration, were calculated using a four-parameter logistic function and presented as mean±SD. […] To evaluate the nature of the detected autophagy, a combined treatment with compound 3 and the autophagy inhibitors chloroquine (Chlq) and 3-methyladenine (3-MA) was carried out. […] After 72 h, cell viability was determined by CV assay.

1-[2-(7,8-dicarba-nido-undecaborate)]- [drawing 126] H-indolium-2-amine [compound 3]
IC50 [1]: 6.9 ± 1.5 µM | IC50 [2]: 15.3 µM | CFSE mean fluorescence intensity (undivided cell fraction) [3]: significantly higher in comparison to controls | Selectivity index (IC50 value of primary vs. cancer cells), MRC-5, second cancer cell line column ([4]; presumably HCT116): 1.5 | Selectivity index (IC50 value of primary vs. cancer cells), MRC-5, third cancer cell line column ([4]; presumably HT29): 0.98 | Selectivity index (IC50 value of primary vs. cancer cells), MRC-5, first cancer cell line column ([4]; presumably MC38): 1.81

Reference: publication PMC11649784, “Re-design and evaluation of diclofenac-based carborane-substituted prodrugs and their anti-cancer potential” (Scientific Reports, 2024)
